{"source": "patent EP4635969A1", "about": "“NOVEL GLUCOCORTICOID, METHOD FOR PREPARING SAME, AND USE THEREOF” (Tianjin Pharmaceutical Biotechnology Co., Ltd., priority 2022, dated 2024)", "key": {"IL-17": {"test_system": "IL-17", "assay": "Psoriasis experiment (imiquimod model): inflammatory cytokine in serum (ELISA)", "type": "in vivo, mice", "conditions": "for level of IL-17 / inflammatory cytokines in psoriasis model mice: compared with the model group; for IL-17: serum, day 8 of modeling, 0.2 g cream per mouse daily for 7 days", "quoted_text": "(§10) Positive control drug: Fluticasone Propionate Cream (specification: 0.05% × 15 g, Zhejiang Xianju Pharmaceutical Co. Ltd., Lot No. 211106), stored at room temperature protected from light until use.\n(§11) Adult mice were selected, and the skin of 2 cm × 3 cm on the back of mice was locally depilated. The mice in the model group and drug administration group were applied with 62.5 mg of 5% imiquimod cream on their back for modeling, while the mice in the blank control group were applied with medical petroleum jelly on their back daily. The above procedures were performed once a day for 7 consecutive days.\n(§12) The mice in the drug administration group were applied with the corresponding drugs on their backs daily at a dose of 0.2 g per mouse, while the blank control group and the model group were only applied with 0.2 g of the test sample drug matrix. One hour after drug administration, the drugs were wiped off with sterile cotton swabs, followed by the application of imiquimod. The above procedures were performed once a day for 7 consecutive days.\nAfter the PASI scoring on day 8 of modeling, blood was collected from the orbital sinus of mice and centrifuged at 3000 rpm for 10 min. The supernatant was extracted to measure the level of IL-17. All procedures were performed following the instructions of the ELISA kit.\n(§13) Statistical analysis was performed using SPSS software, and the results were expressed as mean ± standard deviation. One-way ANOVA was used for intergroup comparisons. For data with homogeneous variance, the LSD test was used; for data with heterogeneous variance, the Dunnett-t test was used. A value of P < 0.05 was considered statistically significant."}, "asthma model mice": {"test_system": "asthma model mice", "assay": "Anti-asthma pharmacodynamic experiment: airway hyperresponsiveness (Penh) after methacholine challenge", "type": "in vivo, female BALB/c mice", "quoted_text": "Pharmacological Example 4: Pharmacodynamic Experiment on Anti-Asthma\nThe suspensions were stored at room temperature protected from light until use.\nPositive control drug: Budesonide Suspension for Inhalation (specification: 2 mL: 1 mg; AstraZeneca Inc.; Lot No. : 327392) was diluted with injection-grade sodium chloride solution to 0.3 mg/ml as the positive control drug, and stored at room temperature protected from light until use.\nSixty female BALB/c mice underwent a one-week adaptive feeding period. Ten mice were randomly selected as the blank control group, while 50 mice were selected to establish asthma models.\nFrom days 21 to 23 after sensitization, the mice in the model group and drug administration group were exposed to a 30-minute aerosol challenge with 5% OVA, while the mice in the blank control group were exposed to normal saline aerosol for the same duration.\nAirway responsiveness was measured in all groups of mice after the last challenge. The mice were placed into a plethysmography chamber, and baseline Penh values were recorded. Subsequently, the mice were challenged with aerosolized methacholine at concentrations from low to high of 0, 6.25, and 12.5 mg/mL, with an aerosol volume of 100 µ L each time for 60 s. […] Penh values were then recorded for 3 min and averaged to compare the airway responsiveness of each group of mice.\nStatistical analysis was performed using SPSS software. Measurement data were expressed as mean ± standard deviation. One-way ANOVA was used for intergroup comparisons. For data with homogeneous variance, LSD test was used; for data with heterogeneous variance, Dunnett-t test was used. A value of P < 0.05 was considered statistically significant."}, "[1]": {"test_system": "inflammatory cytokines IL-6 and IL-12", "assay": "Anti-asthma pharmacodynamic experiment: inflammatory cytokines in bronchoalveolar lavage fluid (ELISA)", "type": "in vivo, female BALB/c mice"}, "[2]": {"assay": "Pharmacokinetic (PK) experiment in rats", "type": "in vivo, male SD rats", "conditions": "male, SD, rat, plasma, single", "protocol": "Pharmacological Example 11. Pharmacokinetic (PK) Experiment in Rats\nThe solution was prepared before administration.\nAnimals: 6 male SD rats, SPF grade (Beijing Vital River Laboratory Animal Technology Co., Ltd.).\nAnimal grouping: The animals were weighed prior to administration, and the dosage was calculated based on body weight. The animals in the oral administration group were fasted overnight (10-14 hours) before administration, and food was reintroduced 4 hours post-administration. Table 23. Animal grouping and drug administration dosages for pharmacokinetic (PK) experiment in rats\nBlood collection time points: Blood was collected from the jugular vein at 2 min, 5 min, 15 min, 30 min, 1 h, 2 h, 4 h, 8 h, and 24 h after administration. Approximately 0.25 mL of blood was collected for each sample, anticoagulated with heparin sodium, and then placed on ice immediately.\nPlasma sample processing: Blood samples were placed on ice after collection and centrifuged to separate plasma within 1 hour (centrifugation conditions: 6000 rpm, 3 minutes, 2-8 °C ). Plasma samples were stored in a -80°C freezer before analysis.\nData processing: Pharmacokinetic parameters were calculated using Phoenix WinNonlin 8.2.0 based on the plasma drug concentration data at different time points."}, "[3]": {"molecular_target": "T1, mineralocorticoid receptor (MR) (Homo sapiens, UniProt P08235)", "T1 sequence (P08235 726-984)": "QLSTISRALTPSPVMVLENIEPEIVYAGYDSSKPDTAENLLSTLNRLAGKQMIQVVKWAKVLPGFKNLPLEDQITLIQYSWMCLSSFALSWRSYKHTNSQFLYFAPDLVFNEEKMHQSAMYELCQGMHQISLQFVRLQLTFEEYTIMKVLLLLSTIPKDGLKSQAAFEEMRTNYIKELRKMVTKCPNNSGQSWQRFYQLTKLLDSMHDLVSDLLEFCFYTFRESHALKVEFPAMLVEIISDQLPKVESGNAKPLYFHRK", "assay": "Assay for agonist activity on mineralocorticoid receptor (luciferase reporter, HEK293 cells transfected with pBIND-MR plasmid)", "type": "cell-based", "protocol": "(§1) Pharmacological Example 2: Assay for Agonist Activity on Mineralocorticoid Receptor (MR) and Progesterone Receptor (PR)\n(§2) Test compound stock solutions: The test compounds (compounds 4, 5, 7, 8, 9, 11, 13, 16, 17, 18, 22, 23, 24, 34, 35, 36, 38, 41, 45, 47, 53, 55, and 59) were accurately weighed, dissolved in DMSO to prepare stock solutions at a concentration of 20 mM, and stored at -20 °C.\n(§3) The test compounds were subjected to a 4-fold serial dilution starting from an initial concentration of 50 µ M, generating a 12-point concentration gradient with duplicate wells for each concentration. The blank control consisted of 0.1% DMSO.\n(§4) The HEK293 stable cell lines […] transfected with mineralocorticoid receptor (MR) and progesterone receptor (PR) (ICE Bioscience, Lot No. TYP-20220819, TPJ-20220812) were cultured in Dulbecco's Modified Eagle Medium (DMEM) supplemented with 10% fetal bovine serum (FBS) and 200 µ g/ml Hygromycin B in a cell incubator containing 5% CO2 at 37 °C. The spent medium was aspirated, and the cells were washed once with phosphate-buffered saline (PBS). Then, 1 mL of TrypLE™ Express solution was added, and the cells were incubated at 37 °C for approximately 2 min. When the cells detached from the bottom of the cell culture dish, approximately 5 mL of pre-warmed complete medium at 37 °C was added. The cell suspension was gently pipetted with a pipette to dissociate clumped cells. The cell suspension was transferred to a sterile centrifuge tube and centrifuged at 1000 rpm for 5 min to pellet the cells for experiments or subculture..\n(§5) HEK293 cells were digested and seeded into 6-cm culture dishes. The pBIND-MR and pBIND-PR plasmids were separately transfected into the HEK293 cells using a transfection reagent, resulting in HEK293 cells successfully transfected with the pBIND-MR and pBIND-PR plasmids, respectively. The cells were resuspended in phenol red-free DMEM medium containing 5% charcoal-stripped serum, counted, and then seeded into 96-well plates. The test compounds were added, and the plates were then incubated in an incubator. The luminescence signal values were measured using a multimode microplate reader following the instructions of the luciferase assay kit. The EC50 values of each test compound were calculated using the nonlinear fitting formula with GraphPad Prism 8.0 software."}, "psoriasis model mice": {"test_system": "psoriasis model mice", "assay": "Psoriasis experiment (imiquimod model): skin lesion (PASI) score", "type": "in vivo", "conditions": "for PASI scores: compared with the model group; for PASI score: day 8 of modeling, 0.2 g cream per mouse daily for 7 days (compounds 1 mg/g, fluticasone propionate 0.5 mg/g)", "quoted_text": "as §10, §11, §12\nReferring to the clinical Psoriasis Area and Severity Index (PASI) scoring criteria, erythema, scaling, and thickness at the skin lesion sites were evaluated on a 0-4 scale on day 8 of modeling, and the total score was obtained by summing the three items.\n• (1) Erythema: a score of 0 points indicates no erythema, a score of 1 point indicates erythema appearing light red, a score of 2 points indicates erythema appearing red, a score of 3 points indicates erythema appearing dark red, and a score of 4 points indicates erythema appearing extremely deep red; • (2) Scaling: a score of 0 points indicates no scaling on the surface, a score of 1 point indicates partial skin lesions covered with scaling, a score of 2 points indicates most skin lesions covered with scaling, a score of 3 points indicates almost all skin lesions covered with scaling in layers, and a score of 4 points indicates all skin lesions covered with scaling; • (3) Thickness: a score of 0 points indicates skin lesions flush with normal skin, a score of 1 point indicates skin lesions slightly elevated above normal skin surface, a score of 2 points indicates moderate elevation of skin lesions, a score of 3 points indicates thickened skin lesions with obvious elevation, and a score of 4 points indicates highly thickened skin lesions with prominent elevation.\nas §13"}, "[4]": {"assay": "Stability in animal lung tissue homogenate, skin tissue homogenate and aqueous humor", "type": "in vitro ADME"}, "[5]": {"assay": "Determination of stability in plasma in vitro, human plasma (LC-MS/MS)", "type": "in vitro ADME", "conditions": "human, human plasma, 1 µM, 37 °C; read-out: Half-life T1/2 (min) in plasma of different species, Human plasma", "protocol": "(§6) Pharmacological Example 3: Determination of Stability in Plasma in Vitro\n(§7) The stock solution was diluted with acetonitrile to obtain a working solution at a concentration of 100 µ M. The solution should be freshly prepared prior to use and maintained at room temperature during application.\n(§8) 990 µ L of human and mouse plasma (N = 2) were separately pipetted and pre-incubated at 37 °C for 5 min. Then, 10 µ L of the test compound working solution was added and vortexed thoroughly (the final concentration of the test compound was 1 µ M). Immediately, 50 µ L of the plasma sample was added to 150 µ L of ice-cold precipitation agent containing the internal standard and vortexed thoroughly as the 0-time sample. The remaining plasma sample was continuously incubated at 37 °C, and 50 µ L of the plasma sample was aspirated and added to 150 µ L of ice-cold precipitation agent containing the internal standard at preset sampling time points, followed by thorough vortexing. The collected samples were stored in a freezer at -60 to -90 °C until analysis.\n(§9) The concentration of the test compound was determined by LC-MS/MS, and its degradation was monitored. (semi-quantitative determination was conducted by comparing the peak area of the analyte to that of the internal standard)."}, "[6]": {"assay": "Determination of stability in plasma in vitro, mouse plasma (LC-MS/MS)", "type": "in vitro ADME", "conditions": "37 °C, read-out: Half-life T1/2 (min) in plasma of different species, Mouse plasma", "protocol": "as §6, §7, §8, §9"}, "[7]": {"molecular_target": "T2, progesterone receptor (PR) (Homo sapiens, UniProt P06401)", "T2 sequence (P06401 678-933)": "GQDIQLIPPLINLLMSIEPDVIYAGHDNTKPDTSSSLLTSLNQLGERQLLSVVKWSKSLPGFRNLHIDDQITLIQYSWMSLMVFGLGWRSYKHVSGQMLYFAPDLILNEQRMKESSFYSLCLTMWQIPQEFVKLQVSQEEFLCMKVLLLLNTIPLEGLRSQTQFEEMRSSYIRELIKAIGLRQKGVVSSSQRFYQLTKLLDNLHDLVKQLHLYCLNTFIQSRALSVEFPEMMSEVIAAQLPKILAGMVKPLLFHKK", "assay": "Assay for agonist activity on progesterone receptor (luciferase reporter, HEK293 cells transfected with pBIND-PR plasmid)", "type": "cell-based", "protocol": "as §1, §2, §3, §4, §5"}, "[8]": {"conditions": "after entering the systemic circulation; cited from earlier work"}, "[9]": {"conditions": "bronchoalveolar lavage fluid, 0.3 mg/mL, 50 µL intratracheally once daily for 3 days"}}, "data": [{"smiles": "C[C@]12C=CC(=O)C=C1[C@@H](F)C[C@H]1[C@@H]3C[C@H]4OC(c5ccc(CSC6CCOC6=O)cc5)O[C@@]4(C(=O)CO)[C@@]3(C)C[C@H](O)[C@@]12F", "note": "(stereo partly drawn) [Compound 8, (2S,6aS,6bR,7S,8aS,8bS,11aR,12aS,12bS)-2,6b-Difluoro-7-hydroxy-8b-(2-hydroxyacetyl)-6a,8a-dimethyl-10-(4-(((2-oxotetrahydrofuran-3-yl)thio)methyl)phenyl)-1,2,6a,6b,7,8,8a,8b,11a,12,12a, 12b-dodecahydro-4H-naphtho[2',1':4,5]indeno[1,2-d][1,3]dioxol-4-one]", "values": [{"measurement": "level of IL-17 / inflammatory cytokines in psoriasis model mice", "setting": "IL-17", "value": "significantly decreased the level of IL-17"}, {"measurement": "IL-17", "setting": "IL-17", "value": "53.35 ± 64.19", "unit": "pg/mL"}, {"measurement": "Penh values in mice, Methacholine concentration (mg/ml) 0", "setting": "asthma model mice; 0.3 mg/mL, 50 µL intratracheally once daily for 3 days, methacholine 0 mg/ml", "value": "1.17 ± 0.23"}, {"measurement": "Penh values in mice, Methacholine concentration (mg/ml) 6.25", "setting": "asthma model mice; 0.3 mg/mL, 50 µL intratracheally once daily for 3 days, methacholine 6.25 mg/ml", "value": "1.78 ± 0.46"}, {"measurement": "Penh values in mice, Methacholine concentration (mg/ml) 12.5", "setting": "asthma model mice; 0.3 mg/mL, 50 µL intratracheally once daily for 3 days, methacholine 12.5 mg/ml", "value": "2.07 ± 0.66"}, {"measurement": "Effects on airway hyperresponsiveness (Penh values) in mice", "setting": "asthma model mice; compared with the model group", "value": "significantly decreased the Penh values in mice"}, {"measurement": "IL-6", "setting": "[1]; [9]", "value": "19.9 ± 5.3", "unit": "pg/mL"}, {"measurement": "IL-12", "setting": "[1]; [9]", "value": "20.1 ± 7.1", "unit": "pg/mL"}, {"measurement": "Effects on inflammatory cytokines in bronchoalveolar lavage fluid of mice", "setting": "[1]; compared with the model group", "value": "extremely significantly decreased the levels of IL-6 and IL-12 in mice"}, {"measurement": "AUC(0-t)", "setting": "[2]; iv, 2 mg/kg", "value": "106 ± 35.9", "unit": "ng·h/mL"}, {"measurement": "half-life", "setting": "[2]; iv, 2 mg/kg", "value": "< 0.5", "unit": "h"}, {"measurement": "AUC(0-t)", "setting": "[2]; po, 10 mg/kg, gavage", "value": "< 70", "unit": "ng·h/mL"}, {"measurement": "half-life", "setting": "[2]; po, 10 mg/kg, gavage", "value": "5.21 ± 3.17", "unit": "h"}, {"measurement": "Cmax", "setting": "[2]; IV, 2 mg/kg", "value": "924 ± 504", "unit": "ng/mL"}, {"measurement": "Cmax", "setting": "[2]; PO, 10 mg/kg, gavage", "value": "23.5 ± 14.4", "unit": "ng/mL"}, {"measurement": "EC50", "setting": "[3]", "value": "> 50", "unit": "µM"}, {"measurement": "PASI scores", "setting": "psoriasis model mice", "value": "PASI scores significantly decreased on day 7"}, {"measurement": "PASI score", "setting": "psoriasis model mice", "value": "4.8 ± 1.3"}, {"measurement": "stability in animal lung tissue homogenate, skin tissue homogenate, and aqueous humor", "setting": "[4]", "value": "relatively stable"}, {"measurement": "half-life at 1 µM", "setting": "[5]", "value": "< 30", "unit": "min"}, {"measurement": "half-life at 1 µM", "setting": "[6]", "value": "< 30", "unit": "min"}, {"measurement": "EC50", "setting": "[7]", "value": "> 50", "unit": "µM"}]}, {"smiles": "CCC(=O)O[C@]1(C(=O)SCF)[C@H](C)C[C@H]2[C@@H]3C[C@H](F)C4=CC(=O)C=C[C@]4(C)[C@@]3(F)[C@@H](O)C[C@@]21C", "note": "[Fluticasone propionate, reference compound]", "values": [{"measurement": "level of IL-17 / inflammatory cytokines in psoriasis model mice", "setting": "IL-17", "value": "significantly decreased the level of IL-17"}, {"measurement": "IL-17", "setting": "IL-17", "value": "25.04 ± 10.02", "unit": "pg/mL"}, {"measurement": "plasma half-life in the human body", "setting": "[8]", "value": 3, "unit": "h"}, {"measurement": "PASI scores", "setting": "psoriasis model mice", "value": "PASI scores significantly decreased on day 7"}, {"measurement": "PASI score", "setting": "psoriasis model mice", "value": "4.0 ± 0.6"}]}]}
